We go through 5 compounds from patent publication US20050239753A1, “Methods of inhibition of MMTV-like viruses” (GILEAD SCIENCES, INC., priority 2004, published 2005).

For assay [1], the target named is T1, MMTV RT (Mouse mammary tumor virus, UniProt P03365). Put plainly: MMTV RT activity, filter-based [33P]dNTP incorporation assay on lysed MMTV particles. It is filed as biochemical. Also noted: MMTV particles were isolated and concentrated from MM5MT cells (ATCC) after induction with dexamethasone and insulin; host or cells: MM5MT cells (virus-producing mouse mammary tumour line), induced with dexamethasone and insulin; lysed virions. Particulars: for potency against MMTV RT relative to 3TCppp: more potent than 3TCppp. As to the method:
MMTV particles were isolated and concentrated from MM5MT cells (ATCC) after induction with dexamethasone and insulin as previously described (Fine, D., et al., In Vitro 12:693-701, 1976). Lysed particles were assayed for RT activity using a standard filter-based, [^33P]dNTP incorporation assay (modified from Wu, J., et al., J. Biol. Chem. 268:9980-9985, 1993). Inhibition of the RT activity was measured by adding the test compounds, the acyclic nucleoside diphosphophosphonates and cyclic nucleoside triphosphates, at various concentrations and 50% inhibitory concentrations (IC50) were calculated for each compound. All compounds tested were active against the MMTV RT. […] The activity of AZTppp against the MMTV RT as previously observed was confirmed with an IC50 value of 0.4 μM.

Assay [2] deals with T1, MMTV RT. Particulars: cited from earlier work.

T1 sequence (P03365 861-1436): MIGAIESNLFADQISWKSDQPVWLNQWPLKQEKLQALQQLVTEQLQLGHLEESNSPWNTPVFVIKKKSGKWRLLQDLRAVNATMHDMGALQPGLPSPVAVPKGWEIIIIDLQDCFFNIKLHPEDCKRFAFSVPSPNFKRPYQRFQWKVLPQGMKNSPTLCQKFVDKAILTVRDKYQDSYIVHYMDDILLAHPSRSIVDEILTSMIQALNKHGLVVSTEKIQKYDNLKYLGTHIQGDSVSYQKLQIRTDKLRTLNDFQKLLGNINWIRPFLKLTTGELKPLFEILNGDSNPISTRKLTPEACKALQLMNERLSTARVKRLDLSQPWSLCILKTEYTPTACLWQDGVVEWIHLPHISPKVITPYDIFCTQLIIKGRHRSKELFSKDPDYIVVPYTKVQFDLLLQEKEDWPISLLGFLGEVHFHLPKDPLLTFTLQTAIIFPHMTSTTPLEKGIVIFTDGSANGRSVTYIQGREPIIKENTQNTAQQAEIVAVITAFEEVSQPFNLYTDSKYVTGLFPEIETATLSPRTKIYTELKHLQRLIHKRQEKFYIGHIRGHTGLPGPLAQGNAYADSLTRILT

What is called IC50 is the point on the concentration scale where inhibition reaches its midpoint. Low readings indicate greater potency, high ones weaker potency. Compound `Nc1ccn([C@@H]2CS[C@H](COP(=O)(O)OP(=O)(O)OP(=O)(O)O)O2)c(=O)n1` [3TCppp, reference compound] gave a 50% inhibitory concentration (IC50) at MMTV RT [1] of 108 µM.
With `Cc1cn([C@H]2C[C@H](N=[N+]=[N-])[C@@H](COP(=O)(O)OP(=O)(O)OP(=O)(O)O)O2)c(=O)[nH]c1=O` [AZTppp, reference compound], the IC50 against MMTV RT [1] is 0.4 µM. Moreover, the “direct inhibition of the MMTV RT enzyme compared with HIV RT enzyme” value on MMTV RT [2] is listed as “as efficiently as the HIV RT enzyme”.
With `Nc1nc(=O)n([C@@H]2CS[C@H](COP(=O)(O)OP(=O)(O)OP(=O)(O)O)O2)cc1F` [FTCppp, reference compound], the IC50 on MMTV RT [1] turned out to be 44 µM.
With `Nc1ncnc2c1ncn2CCOCP(=O)(O)OP(=O)(O)OP(=O)(O)O` [PMEApp], on MMTV RT [1], the IC50 was approximately 4 µM, the “activity against the MMTV RT” value is given as “active” and the “potency against MMTV RT relative to 3TCppp” value is 25 fold.
For `C[C@H](Cn1cnc2c(N)ncnc21)OCP(=O)(O)OP(=O)(O)OP(=O)(O)O` [PMPApp], in that order: approximately 4 µM, “active” and 25 fold.
